# Measured values as given in US20220372040A1, “METTL3 MODULATORS” (Accent Therapeutics, Inc., priority 2020, published 2022).
# Like-named read-outs stand apart in the source and are kept apart here.
# Key:
# METTL3/METTL14 = METTL3/METTL14 (Homo sapiens, UniProt Q86U44); test: METTL3-14 standard enzyme assay (3H-SAM flashplate scintillation); type: biochemical; details: METTL3/METTL14 2.5 nM, RNA 100 nM, 3H-SAM 100 nM, 30 min
# How it was run: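 Radiometric methylation readout: biotinylated RNA substrate UCUGGACUAAA and 3H-SAM, each 100 nM final, reacted 30 min at ambient temperature with 2.5 nM enzyme complex after 5 min compound preincubation (HEPES pH 7.5 buffer, KCl, MgCl2, DTT). Excess unlabelled SAM (15 μM) stopped reactions before streptavidin flashplate capture.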
# PRMT5-MEP50 = PRMT5-MEP50 (Homo sapiens, UniProt O14744); test: PRMT5 assay (3H-SAM flashplate scintillation); type: biochemical; details: PRMT5-MEP50 2.5 nM, histone H4 peptide 100 nM, 3H-SAM 250 nM, 60 min
# PRMT5-MEP50, sequence (O14744 whole entry): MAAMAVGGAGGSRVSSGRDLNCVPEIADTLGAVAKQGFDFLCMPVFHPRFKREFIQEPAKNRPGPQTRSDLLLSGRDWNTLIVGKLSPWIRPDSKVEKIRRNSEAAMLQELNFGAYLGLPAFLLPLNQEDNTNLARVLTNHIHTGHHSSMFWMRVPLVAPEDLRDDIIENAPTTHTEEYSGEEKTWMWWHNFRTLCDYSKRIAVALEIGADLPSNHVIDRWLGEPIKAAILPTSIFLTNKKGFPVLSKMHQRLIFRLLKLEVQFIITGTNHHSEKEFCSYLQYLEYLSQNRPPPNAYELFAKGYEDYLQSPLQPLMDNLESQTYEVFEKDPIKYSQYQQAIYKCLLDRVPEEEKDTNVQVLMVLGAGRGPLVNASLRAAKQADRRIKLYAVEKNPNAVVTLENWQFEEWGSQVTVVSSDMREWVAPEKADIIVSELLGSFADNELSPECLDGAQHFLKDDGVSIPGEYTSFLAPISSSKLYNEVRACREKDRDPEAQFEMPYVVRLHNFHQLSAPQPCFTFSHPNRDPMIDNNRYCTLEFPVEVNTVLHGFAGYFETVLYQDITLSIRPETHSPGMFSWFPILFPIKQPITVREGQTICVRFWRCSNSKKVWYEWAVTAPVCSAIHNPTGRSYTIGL
# PRMT5-MEP50, sequence (Q9BQA1 whole entry partner): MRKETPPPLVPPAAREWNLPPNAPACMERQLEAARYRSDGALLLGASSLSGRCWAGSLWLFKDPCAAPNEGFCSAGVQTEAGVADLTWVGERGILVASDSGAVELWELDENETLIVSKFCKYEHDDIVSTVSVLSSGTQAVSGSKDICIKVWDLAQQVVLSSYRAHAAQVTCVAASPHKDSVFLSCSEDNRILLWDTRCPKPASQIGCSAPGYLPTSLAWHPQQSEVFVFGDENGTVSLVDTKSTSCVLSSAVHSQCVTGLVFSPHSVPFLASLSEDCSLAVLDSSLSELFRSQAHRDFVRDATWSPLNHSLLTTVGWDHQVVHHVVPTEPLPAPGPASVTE
# How it was run: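 Radiometric methyltransferase read-out: after 60 min reaction, excess unlabelled SAM (15 μM) stops turnover and biotinylated H4 peptide (100 nM) carrying 3H-methyl from 250 nM 3H-SAM is captured on streptavidin flashplates (2 h, 25° C) for scintillation counting. Enzyme, 2.5 nM PRMT5-MEP50, was preincubated 5 min with compound in pH 8.0 Tris buffer with DTT and Tween.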
# METTL1/WDR4 = METTL1/WDR4 (Homo sapiens, UniProt Q9UBP6); test: METTL1 assay (3H-SAM flashplate scintillation); type: biochemical
# METTL1/WDR4, sequence (Q9UBP6 whole entry, species assumed): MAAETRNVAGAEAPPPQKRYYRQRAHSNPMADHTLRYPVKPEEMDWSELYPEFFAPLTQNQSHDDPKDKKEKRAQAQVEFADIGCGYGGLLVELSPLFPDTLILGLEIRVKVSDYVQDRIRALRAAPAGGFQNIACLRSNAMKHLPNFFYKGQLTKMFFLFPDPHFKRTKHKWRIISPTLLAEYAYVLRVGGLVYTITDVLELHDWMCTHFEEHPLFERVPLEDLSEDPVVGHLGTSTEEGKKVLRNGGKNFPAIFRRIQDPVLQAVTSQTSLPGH
# METTL1/WDR4, sequence (P57081 whole entry partner, species assumed): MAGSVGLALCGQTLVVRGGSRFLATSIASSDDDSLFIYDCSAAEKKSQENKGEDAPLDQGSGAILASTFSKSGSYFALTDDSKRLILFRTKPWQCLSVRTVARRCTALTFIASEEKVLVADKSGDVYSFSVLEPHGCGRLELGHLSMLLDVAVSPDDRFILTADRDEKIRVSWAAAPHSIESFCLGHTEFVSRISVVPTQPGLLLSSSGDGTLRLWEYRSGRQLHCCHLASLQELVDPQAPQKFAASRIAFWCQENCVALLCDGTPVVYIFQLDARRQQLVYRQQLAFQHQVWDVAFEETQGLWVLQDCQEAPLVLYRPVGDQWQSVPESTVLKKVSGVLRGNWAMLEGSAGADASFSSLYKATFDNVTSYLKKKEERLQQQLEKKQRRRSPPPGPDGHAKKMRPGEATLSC
# How it was run: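 Radiometric methyltransfer by METTL1/WDR4 (6.25 nM f.c., 5 min preincubation) at ambient temperature in HEPES pH 7.5, KCl, MgCl2, DTT; started with 25 nM 3′-biotinylated RNA and 60 nM 3H-SAM, run 20 min, quenched with 15 μM cold SAM. Product captured on streptavidin flashplates (2 h, 25° C), counted by scintillation.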
# [1] = system: m^6 A in cellular mRNA of MOLM-13 cells; test: m^6 A-mRNA LC-MS/MS assay (m^6 A cellular assay); type: cell-based; details: Homo sapiens, 24 hours incubation, LC-MS/MS of m^6 A/A in mRNA
# Method: m^6 A-mRNA LC-MS/MS Assay
# 5×10^6 MOLM-13 (DSMZ) cells were seeded into 10 cm dishes in RPMI 1640 media containing 10% fetal bovine serum and placed in a humidified tissue culture incubator at 37° C. overnight. Compounds were resuspended in 100% DMSO and dosed into each dish at a fixed concentration to comprise an 8-point dose response with a 4-fold serial dilution ranging from 25 μM to 1.5 nM in 0.25% DMSO final and allowed to incubate for 24 hours in a humidified tissue culture incubator at 37° C. Cells were harvested by centrifugation followed by mRNA extraction using DTRECT Dynabeads mRNA DTRECT kit (Life Technologies). mRNA was quantified on NanoDrop spectrophotometer (Thermo Fisher Scientific) and digested into single nucleosides using Nucleoside Digestion Mix (New England Biolabs). Nucleosides are quantified with retention time on a BEH […] column (Waters) and the nucleoside-to-base ion mass transition of 282.1-150.1 (m^6 A) and 268-136 (A) on an API 6500+ triple quadrupole mass spectrometer. Quantification is performed in comparison with the standard curve, obtained from pure nucleoside standards (Selleck Chemicals) running with the same batch of samples. Percentage m^6 A in cellular mRNA is calculated as 100*(m^6 A/A).
# MOLM-13 cells [2] = test: MOLM-13 48 Hour cell proliferation assay (Cell Titer-Glo); type: cell-based; details: Homo sapiens
# Method: MOLM-13 48 Hour Cell Proliferation Assay
# MOLM-13 (DSMZ) cells were seeded at 1000 cells per well in a volume of 44 μL in a Falcon 384-well tissue culture treated clear bottom microplate in RPMI 1640 media containing 10% fetal bovine serum using a Multidrop Combi (ThermoFisher Scientific). Cells were incubated overnight at 37° C. in a humidified tissue culture incubator. The Mosquito® HTS Liquid Handler was used to make a compound/media intermediate plate by aliquoting […] of compound from the initial compound dilution plate (concentrations ranging from 10.0 mM to 38.0 nM in 100% DMSO) into a V bottom 384-well screen matrix plate containing 49 µL of media containing the appropriate serum (50-fold dilution, 2% DMSO). The Apricot liquid handling system was used to transfer […] compounds from the intermediate plate into the Falcon 384-well tissue culture plate containing 44 μL cells (10-point, 4-fold dilution spanning concentrations 25.0 μM to […], 0.25% DMSO final), and placed in a humidified tissue culture incubator at 37° C. After 48 hours, 25 μL of Cell Titer-Glo reagent (Promega) was added to each well using a Multidrop Combi. The plate was protected from light and placed on an IKA plate shaker for at 300 rpm for 10 minutes at room temperature. The plate was read on an EnVision plate reader (Perkin Elmer) using the Ultra Sensitive Luminescence protocol. Data analysis was performed by normalizing the raw luminescence units to an average of the positive control values for staurosporine (100% cell death) and the negative control values for DMSO (0% cell death). An IC50 was calculated using a 4-parameter logistic nonlinear regression model in GraphPad Prism.
# MOLM-13 cells [3] = test: MOLM-13 96 Hour cell proliferation assay (Cell Titer-Glo); type: cell-based; details: Homo sapiens
# Method: MOLM-13 96 Hour Cell Proliferation Assay
# MOLM-13 (DSMZ) cells were seeded at 600 cells per well in a volume of 44 μL in a Greiner Bio-One CELLSTAR™ 384 Well Polystyrene Cell Culture clear bottom microplate in RPMI 1640 media containing 10% fetal bovine serum using a Multidrop Combi (ThermoFisher Scientific). Cells were incubated overnight at 37° C. in a humidified tissue culture incubator. To prevent evaporation or to reduce edge effect, add 50 μL or more H2O to an empty plate, cover, and place on top of the cell plates. The Mosquito® HTS Liquid Handler was used to make a compound/media intermediate plate by aliquoting 1 μL of compound from the initial compound dilution plate (concentrations ranging from 10.0 mM to 38.0 nM in 100% DMSO) into Bio-One 384-well polypropylene conical bottom microplate containing 49 μL of media containing the appropriate serum (50-fold dilution, 2% DMSO, compound concentrations ranging from 200.0 μM and […]). The Apricot liquid handling system was used to transfer 6.2 μL compounds from the intermediate plate into the seeding plate containing 44 μL cells (8-fold dilution spanning concentrations 25.0 μM to […], 0.25% DMSO final), and placed in a humidified tissue culture incubator at 37° C. After 96 hours, 25 μL of Cell Titer-Glo reagent (Promega) was added to each well using an Integra liquid handling system. The plate was protected from light using TopSeal-A (Black) film over the entire plate, added White Bottom seal film on the bottom of the entire plate for a better reading on the Envision, and placed on an IKA plate shaker for at 300 rpm for 10 minutes at room temperature. The plate was read on an EnVision plate reader (Perkin Elmer) using the Ultra Sensitive Luminescence protocol. Data analysis was performed by normalizing the raw luminescence units to an average of the positive control values for staurosporine (100% cell death) and the negative control values for DMSO (0% cell death). An IC50 was calculated using a 4-parameter logistic nonlinear regression model in GraphPad Prism.
# METTL16 = molecular target: T1, METTL16 (Homo sapiens, UniProt Q86W50); test: METTL16 assay (3H-SAM flashplate scintillation); type: biochemical; details: METTL16 100 nM, RNA 50 nM, 3H-SAM 200 nM, SAM 800 nM, 20 min
# T1 sequence (Q86W50 1-562): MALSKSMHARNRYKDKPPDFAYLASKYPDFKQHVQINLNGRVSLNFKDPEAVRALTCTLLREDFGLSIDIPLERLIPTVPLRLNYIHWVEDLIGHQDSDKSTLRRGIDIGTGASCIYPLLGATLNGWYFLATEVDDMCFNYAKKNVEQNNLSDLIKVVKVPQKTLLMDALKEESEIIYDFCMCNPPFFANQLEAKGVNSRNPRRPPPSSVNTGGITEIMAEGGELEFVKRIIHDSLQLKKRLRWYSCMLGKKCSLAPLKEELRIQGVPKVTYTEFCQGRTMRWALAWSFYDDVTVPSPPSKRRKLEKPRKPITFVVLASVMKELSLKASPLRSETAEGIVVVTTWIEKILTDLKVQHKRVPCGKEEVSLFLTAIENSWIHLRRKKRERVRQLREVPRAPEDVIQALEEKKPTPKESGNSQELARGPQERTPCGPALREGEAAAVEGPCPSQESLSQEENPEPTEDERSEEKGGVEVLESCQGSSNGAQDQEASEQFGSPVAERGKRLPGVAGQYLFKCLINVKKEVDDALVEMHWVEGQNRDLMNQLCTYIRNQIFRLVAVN
# How it was run: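 Radiometric methyltransferase reaction at ambient temperature in 20 mM HEPES pH 7.5, 50 mM KCl, 1 mM DTT, with 100 nM enzyme preincubated 5 min with compound. It was started with 50 nM 3′-biotinylated RNA, 200 nM 3H-SAM plus 800 nM cold SAM, run 20 min, then quenched with excess cold SAM. Product was captured on streptavidin flashplates and scintillation-counted.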
# [4] = METTL1/WDR4 6.25 nM, RNA 25 nM, 3H-SAM 60 nM, 20 min, read-out: METTL1 IC50
# METTL3/METTL14, sequence (Q86U44 whole entry, species assumed): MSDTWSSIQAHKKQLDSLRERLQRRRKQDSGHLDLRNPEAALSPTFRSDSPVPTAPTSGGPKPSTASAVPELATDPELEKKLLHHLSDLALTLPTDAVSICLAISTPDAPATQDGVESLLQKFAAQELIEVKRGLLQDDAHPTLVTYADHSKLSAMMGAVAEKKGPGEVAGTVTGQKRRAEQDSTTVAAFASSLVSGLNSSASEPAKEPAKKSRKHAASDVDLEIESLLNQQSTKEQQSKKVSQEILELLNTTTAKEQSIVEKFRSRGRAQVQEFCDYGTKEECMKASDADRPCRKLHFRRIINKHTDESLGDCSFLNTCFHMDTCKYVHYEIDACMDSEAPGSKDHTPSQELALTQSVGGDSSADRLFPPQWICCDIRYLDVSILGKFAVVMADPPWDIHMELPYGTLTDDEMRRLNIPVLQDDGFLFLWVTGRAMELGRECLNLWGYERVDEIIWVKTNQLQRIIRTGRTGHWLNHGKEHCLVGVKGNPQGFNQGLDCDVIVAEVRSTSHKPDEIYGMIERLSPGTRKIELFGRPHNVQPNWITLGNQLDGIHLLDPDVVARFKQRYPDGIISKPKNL
# METTL3/METTL14, sequence (Q9HCE5 whole entry partner, species assumed): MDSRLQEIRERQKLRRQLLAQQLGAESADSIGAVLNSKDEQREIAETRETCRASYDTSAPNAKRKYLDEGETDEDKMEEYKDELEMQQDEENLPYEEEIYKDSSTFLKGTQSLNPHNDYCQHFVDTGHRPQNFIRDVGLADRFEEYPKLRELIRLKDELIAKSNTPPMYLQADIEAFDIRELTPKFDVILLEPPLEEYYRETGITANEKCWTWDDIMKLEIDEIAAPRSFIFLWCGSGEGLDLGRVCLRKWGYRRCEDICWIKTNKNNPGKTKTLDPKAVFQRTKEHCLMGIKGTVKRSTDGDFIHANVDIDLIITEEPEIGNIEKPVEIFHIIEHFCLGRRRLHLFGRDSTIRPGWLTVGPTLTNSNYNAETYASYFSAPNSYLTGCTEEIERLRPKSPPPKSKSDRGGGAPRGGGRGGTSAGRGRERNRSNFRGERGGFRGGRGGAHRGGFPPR
IC50 (MOLM-13 cells [3]) [nM],IC50 (METTL16) [nM],Compound,IC50 (METTL3/METTL14) [nM],IC50 (PRMT5-MEP50) [nM],IC50 (METTL1/WDR4; [4]) [nM],IC50 [1] [nM],IC50 (MOLM-13 cells [2]) [nM],IC50 (METTL1/WDR4) [nM]
–,–,CCc1cc(NCCOC)c2ccc(OCc3cncc(-n4ccc5c(N)ncnc54)c3)cc2n1 [Compound I-16],< 10,> 1000,> 1000,1000 to 10000,1000 to 10000,–
–,–,"CNc1ccc2ccc(CCc3cncc(-n4cc(-c5ccn(C)n5)c5c(N)ncnc54)c3)cc2n1 [Compound I-1, 7-(2-(5-(4-amino-5-(1-methyl-1H-pyrazol-3-yl)-7H-pyrrolo[2,3-d]pyrimidin-7-yl)pyridin-3-yl)ethyl)-N-methylquinolin-2-amine]",< 10,> 1000,–,< 1000,< 1000,> 1000
–,–,CNc1ccc2ccc(OCc3cncc(-c4cn(C5CCCC5)c5c(N)ncnc45)c3)cc2n1 [Compound I-18],< 10,> 1000,> 1000,1000 to 10000,1000 to 10000,–
–,–,CCc1cc(NCCN(C)C)c2ccc(OCc3cncc(-n4ccc5c(N)ncnc54)c3)cc2n1 [Compound I-15],< 10,> 1000,> 1000,–,1000 to 10000,–
–,–,CNc1ccc2ccc(OCc3cncc(-n4ccc5c(N)ncnc54)n3)cc2n1 [Compound I-14],< 10,> 1000,> 1000,1000 to 10000,1000 to 10000,–
< 1000,–,Cn1ccc(-c2cn(-c3cncc(CCc4ccc5ccc(N6CCC6)nc5c4)c3)c3ncnc(N)c23)n1 [Compound I-104],< 10,> 1000,–,< 1000,–,–
< 1000,–,CCNc1ccc2ccc(CCc3cncc(-n4cc(-c5ccn(C)n5)c5c(N)ncnc54)c3)cc2n1 [Compound I-106],< 10,> 1000,–,< 1000,–,–
–,> 1000,Cc1cc(NCCN(C)C)c2ccc(OCc3cncc(-n4cc(Cl)c5c(N)ncnc54)c3)cc2n1 [Compound I-42],10 to 100,> 1000,–,–,< 1000,–
–,–,CCc1cc(N)c2ccc(OCc3cncc(-n4cc(C5CCCC5)c5c(N)ncnc54)c3)cc2n1 [Compound I-11],< 10,> 1000,> 1000,1000 to 10000,< 1000,–
1000 to 10000,–,CNc1cc(CCCN2CCOCC2)c2ccc(OCc3cncc(-n4ccc5c(N)ncnc54)c3)cc2n1 [Compound I-233],< 10,> 1000,–,≥ 10000,–,–
1000 to 10000,–,CCc1cc(N2CCOCC2)c2ccc(OCc3cncc(-n4ccc5c(N)ncnc54)c3)cc2n1 [Compound I-108],< 10,> 1000,–,1000 to 10000,–,–
–,–,CCc1cc(NCCOC)c2ccc(OCc3cncc(-c4c[nH]c5c(N)ncnc45)c3)cc2n1 [Compound I-7],< 10,> 1000,> 1000,–,≥ 10000,–
< 1000,–,CCc1cc(N(C)C2CC2)c2ccc(OCc3cncc(-n4cc(-c5ccn(C)n5)c5c(N)ncnc54)c3)cc2n1 [Compound I-136],< 10,–,–,1000 to 10000,–,–

Compound,IC50 (MOLM-13 cells [3]) [nM],IC50 (METTL16) [nM],IC50 (METTL3/METTL14) [nM],IC50 (PRMT5-MEP50) [nM],IC50 (METTL1/WDR4; [4]) [nM],IC50 [1] [nM],IC50 (MOLM-13 cells [2]) [nM],IC50 (METTL1/WDR4) [nM]
CNc1ccc2ccc(OCc3cc(CO)cc(-n4ccc5c(N)ncnc54)c3)cc2n1 [Compound I-6],1000 to 10000,–,< 10,> 1000,> 1000,–,≥ 10000,–
CN(C)CCNc1cc(C2CCC2)nc2cc(OCc3cncc(-n4ccc5c(N)ncnc54)c3)ccc12 [Compound I-92],< 1000,–,< 10,> 1000,> 1000,1000 to 10000,–,–
CC(C)c1cc(N)c2ccc(OCc3cncc(-n4ccc5c(N)ncnc54)c3)cc2n1 [Compound I-12],1000 to 10000,–,< 10,> 1000,> 1000,–,1000 to 10000,–
CC(C)c1cc(N2CCNCC2)c2ccc(OCc3cncc(-n4ccc5c(N)ncnc54)c3)cc2n1 [Compound I-95],< 1000,–,< 10,> 1000,> 1000,1000 to 10000,–,–
